Legend:
Hepatitis C virus [1] = assay: Inhibition of HCV 1b NS3/4A protease by time-resolved fluorescence assay; parameters: species or system Hepatitis C virus subtype 1b
Hepatitis C virus [2] = assay: Antiviral activity against HCV 1b infected in human Huh7 cells by bicistronic replicon RNA assay in presence of 10% fetal bovine serum; assay type: functional, organism-based, Hepacivirus hominis; conditions: genotype 1b, Huh-7
Hepatitis C virus [3] = assay: Antiviral activity against HCV 1b infected in human Huh7 cells by bicistronic replicon RNA assay in presence of 50% normal human serum; assay type: functional, organism-based, Hepacivirus hominis; conditions: genotype 1b, Huh-7
[4] = (§1) AUC (0 to 4 hrs) in Sprague-Dawley rat at 5 mg/kg, po; assay type: ADME, organism-based, Plasma; parameters: time < 4 hr, dose 5 mg/kg, route oral; conditions: Sprague-Dawley, plasma
[5] = Drug level in Sprague-Dawley rat liver at 5 mg/kg, po after 4 hrs; assay type: ADME, organism-based; parameters: dose 5 mg/kg, route oral; conditions: read-out: Drug uptake
[6] = Drug level in Sprague-Dawley rat liver at 4 mg/kg, po after 4 hrs; assay type: ADME, organism-based; parameters: dose 4 mg/kg, route oral; conditions: read-out: Drug uptake
[7] = Oral bioavailability in Sprague-Dawley rat at 4 mg/kg; assay type: ADME, organism-based; conditions: in vivo
[8] = (§2) Plasma clearance in Sprague-Dawley rat at 4 mg/kg, po; assay type: ADME, organism-based; parameters: dose 4 mg/kg, route oral; conditions: Sprague-Dawley, plasma
[9] = (§3) AUC (0 to 4 hrs) in Sprague-Dawley rat at 4 mg/kg, po; assay type: ADME, organism-based, Plasma; parameters: time < 4 hr, dose 4 mg/kg, route oral; conditions: Sprague-Dawley, plasma
[10] = Inhibition of HCV 2a NS3/4A protease; parameters: species or system Hepatitis C virus subtype 2a
[11] = Inhibition of HCV 3a NS3/4A protease; parameters: species or system Hepatitis C virus subtype 3a
[12] = Inhibition of HCV NS3/4A protease; parameters: species or system Hepacivirus hominis
[13] = Plasma clearance in Sprague-Dawley rat at 4 mg/kg, iv; assay type: ADME, organism-based; parameters: dose 4 mg/kg, route intravenous
[14] = AUC in Sprague-Dawley rat at 4 mg/kg, iv; assay type: ADME, organism-based; parameters: dose 4 mg/kg, route intravenous; conditions: plasma
[15] = Cmax in Sprague-Dawley rat at 4 mg/kg, iv; assay type: ADME, organism-based; parameters: dose 4 mg/kg, route intravenous; conditions: in vivo
[16] = Bioavailability in Sprague-Dawley rat at 4 mg/kg, iv; assay type: ADME, organism-based; conditions: in vivo
Rattus norvegicus [17] = assay: Plasma clearance in Sprague-Dawley rat at 5 mg/kg, po; assay type: ADME, organism-based; parameters: dose 5 mg/kg, route oral; conditions: in vivo
Rattus norvegicus [18] = assay: as §1; assay type: ADME, organism-based, Plasma; parameters: time < 4 hr, dose 5 mg/kg, route oral; conditions: in vivo, 4 h
[19] = Oral bioavailability in Sprague-Dawley rat at 5 mg/kg; assay type: ADME, organism-based; conditions: in vivo
Rattus norvegicus [20] = assay: as §2; assay type: ADME, organism-based; parameters: dose 4 mg/kg, route oral; conditions: in vivo
Rattus norvegicus [21] = assay: as §3; assay type: ADME, organism-based, Plasma; parameters: time < 4 hr, dose 4 mg/kg, route oral; conditions: in vivo, 4 h
[22] = Plasma clearance in Beagle dog at 2 mg/kg, iv; assay type: ADME, organism-based, Canis lupus familiaris; parameters: dose 2 mg/kg, route intravenous
[23] = AUC in Sprague-Dawley rat at 5 mg/kg, po; assay type: ADME, organism-based; parameters: dose 5 mg/kg, route oral; conditions: plasma
[24] = AUC in Sprague-Dawley rat at 10 mg/kg, po; assay type: ADME, organism-based; parameters: dose 10 mg/kg, route oral; conditions: plasma
[25] = AUC in Sprague-Dawley rat at 20 mg/kg, po; assay type: ADME, organism-based; parameters: dose 20 mg/kg, route oral; conditions: plasma
[26] = AUC in Sprague-Dawley rat at 30 mg/kg, po; assay type: ADME, organism-based; parameters: dose 30 mg/kg, route oral; conditions: plasma
[27] = AUC in Beagle dog at 2 mg/kg, iv; assay type: ADME, organism-based, Canis lupus familiaris; parameters: dose 2 mg/kg, route intravenous; conditions: plasma
[28] = AUC in Beagle dog at 5 mg/kg, po; assay type: ADME, organism-based, Canis lupus familiaris; parameters: dose 5 mg/kg, route oral; conditions: plasma
[29] = AUC in Beagle dog at 10 mg/kg, po; assay type: ADME, organism-based, Canis lupus familiaris; parameters: dose 10 mg/kg, route oral; conditions: plasma
[30] = Cmax in Sprague-Dawley rat at 5 mg/kg, po; assay type: ADME, organism-based; parameters: dose 5 mg/kg, route oral; conditions: in vivo
[31] = Cmax in Sprague-Dawley rat at 10 mg/kg, po; assay type: ADME, organism-based; parameters: dose 10 mg/kg, route oral; conditions: in vivo
[32] = Cmax in Sprague-Dawley rat at 20 mg/kg, po; assay type: ADME, organism-based; parameters: dose 20 mg/kg, route oral; conditions: in vivo
[33] = Cmax in Sprague-Dawley rat at 30 mg/kg, po; assay type: ADME, organism-based; parameters: dose 30 mg/kg, route oral; conditions: in vivo
[34] = Cmax in Beagle dog at 2 mg/kg, iv; assay type: ADME, organism-based, Canis lupus familiaris; parameters: dose 2 mg/kg, route intravenous; conditions: in vivo
[35] = Cmax in Beagle dog at 5 mg/kg, po; assay type: ADME, organism-based, Canis lupus familiaris; parameters: dose 5 mg/kg, route oral; conditions: in vivo
[36] = Cmax in Beagle dog at 10 mg/kg, po; assay type: ADME, organism-based, Canis lupus familiaris; parameters: dose 10 mg/kg, route oral; conditions: in vivo
[37] = Bioavailability in Beagle dog at 2 mg/kg, iv; assay type: ADME, organism-based, Canis lupus familiaris; conditions: in vivo
[38] = Drug level in Sprague-Dawley rat liver at 5 mg/kg, po after 24 hrs; assay type: ADME, organism-based; parameters: dose 5 mg/kg, route oral; conditions: read-out: Drug uptake
[39] = Drug level in Sprague-Dawley rat liver at 20 mg/kg, po after 24 hrs; assay type: ADME, organism-based; parameters: dose 20 mg/kg, route oral; conditions: read-out: Drug uptake
[40] = Drug level in Sprague-Dawley rat liver at 30 mg/kg, po after 24 hrs; assay type: ADME, organism-based; parameters: dose 30 mg/kg, route oral; conditions: read-out: Drug uptake

| EC50 (Hepatitis C virus [2]) | AUC(0-t) at 4 h [4] | concentration at 4 h [5] | concentration at 4 h [6] | bioavailability [7] | bioavailability [19] | SMILES | Ki (Hepatitis C virus [1]) | EC50 (Hepatitis C virus [3]) | further results |
| --- | --- | --- | --- | --- | --- | --- | --- | --- | --- |
| 30 nM | 0.9 µM·h | 2400 nM | – | – | – | C=C[C@@H]1C[C@]1(NC(=O)[C@@H]1C[C@@H]2CN1C(=O)[C@H](C(C)C)Nc1nc(cs1)CC/C=C/c1ccc3ccnc(c3c1)O2)C(=O)NS(=O)(=O)C1CC1.O=C(O)C(F)(F)F | 5 nM | 730 nM | – |
| 12 nM | – | – | 570 nM | < 0.01% | – | CCC1C[C@]1(NC(=O)[C@@H]1C[C@@H]2CN1C(=O)[C@H](C1CCCCC1)Nc1nc(cs1)CCC/C=C/c1cccc3c1CN(C3)C(=O)O2)C(=O)NS(=O)(=O)C1CC1.O=C(O)C(F)(F)F (single isomer, unassigned) | 0.16 nM | 50 nM | CL/F [8]: 56 mL/min/kg; AUC(0-t) at 4 h [9]: < 0.01 µM·h |
| 2 nM | – | – | 350 nM | 13% | – | C=C[C@@H]1C[C@]1(NC(=O)[C@@H]1C[C@@H]2CN1C(=O)[C@H]([C@@H](C)CC)Nc1nc(cs1)CCC/C=C/c1cccc3c1CN(C3)C(=O)O2)C(=O)NS(=O)(=O)C1CC1.O=C(O)C(F)(F)F | 0.04 nM | 18 nM | Ki [10]: 0.4 nM; Ki [11]: 45 nM; Ki [12]: 4 nM; EC90 (Hepatitis C virus [2]): 3 nM; EC90 (Hepatitis C virus [3]): 40 nM; CL/F [8]: 17 mL/min/kg; clearance [13]: 17 mL/min/kg; AUC [14]: 0.7 µM·h; Cmax [15]: 400 nM; bioavailability [16]: 13%; AUC(0-t) at 4 h [9]: 0.7 µM·h |
| 5 nM | – | 600 nM | – | – | 8% | C=C[C@@H]1C[C@]1(NC(=O)[C@@H]1C[C@@H]2CN1C(=O)[C@H](C(C)C)Nc1nc(cs1)CCC/C=C/c1cccc3c1CN(C3)C(=O)O2)C(=O)NS(=O)(=O)C1CC1.O=C(O)C(F)(F)F | 0.16 nM | 50 nM | CL (Rattus norvegicus [17]): 21 mL/min/kg; AUC (Rattus norvegicus [18]): 0.4 µM·h |
| 3 nM | – | – | 130 nM | 6% | – | C=C[C@@H]1C[C@]1(NC(=O)[C@@H]1C[C@@H]2CN1C(=O)[C@H](C(C)(C)C)Nc1nc(cs1)CCC/C=C/c1cccc3c1CN(C3)C(=O)O2)C(=O)NS(=O)(=O)C1CC1.O=C(O)C(F)(F)F | 0.16 nM | 23 nM | CL (Rattus norvegicus [20]): 85 mL/min/kg; AUC (Rattus norvegicus [21]): 0.06 µM·h |
| 30 nM | 4.7 µM·h | 3400 nM | – | – | – | C=C[C@@H]1C[C@]1(NC(=O)[C@@H]1C[C@@H]2CN1C(=O)[C@H](C1CCCCC1)Nc1nc(cs1)CCCCc1ccc3ccnc(c3c1)O2)C(=O)NS(=O)(=O)C1CC1.O=C(O)C(F)(F)F | 1.3 nM | 350 nM | – |
| 60 nM | 9.9 µM·h | 5500 nM | – | – | 60% | C=C[C@@H]1C[C@]1(NC(=O)[C@@H]1C[C@@H]2CN1C(=O)[C@H](C(C)C)Nc1nc(cs1)CCCCc1ccc3ccnc(c3c1)O2)C(=O)NS(=O)(=O)C1CC1.O=C(O)C(F)(F)F | 1.7 nM | 920 nM | – |
| 40 nM | < 0.01 µM·h | < 10 nM | – | – | – | C=C[C@@H]1C[C@]1(NC(=O)[C@@H]1C[C@@H]2CN1C(=O)[C@H](C(C)C)Nc1nc(cs1)CCCCc1ccc3nc(-c4ccccc4)cc(c3c1)O2)C(=O)NS(=O)(=O)C1CC1.O=C(O)C(F)(F)F | 0.5 nM | 390 nM | – |
| – | – | – | – | – | 26% | C=C[C@@H]1C[C@]1(NC(=O)[C@@H]1C[C@@H]2CN1C(=O)[C@H]([C@@H](C)CC)Nc1nc(cs1)CCC/C=C/c1cccc3c1CN(C3)C(=O)O2)C(=O)[N-]S(=O)(=O)C1CC1.[K+] | – | – | clearance [22]: 38 mL/min/kg; AUC [23]: 1.7 µM·h; AUC [24]: 2.5 µM·h; AUC [25]: 13.3 µM·h; AUC [26]: 21 µM·h; AUC [27]: 0.2 µM·h; AUC [28]: 0.5 µM·h; AUC [29]: 10 µM·h; Cmax [30]: 500 nM; Cmax [31]: 1400 nM; Cmax [32]: 5900 nM; Cmax [33]: 8000 nM; Cmax [34]: 60 nM; Cmax [35]: 1160 nM; Cmax [36]: 4000 nM; bioavailability [37]: 17%; concentration at 24 h [38]: 10 nM; concentration at 24 h [39]: 40 nM; concentration at 24 h [40]: 60 nM |
